In BindingDB's records for doi:10.1021/jm00029a008 (Dupont Pharmaceuticals, 1994):
Structures can show the parent of a compound that is named as a salt.

Columns and labels:
[1] = molecular target: D(2) dopamine receptor (guinea pig); experiment: Binding affinity for dopamine D2 receptor using [3H]spiperone in guinea pig striatum
[2] = Binding affinity for sigma receptor of guinea pig whole brain using [3H]-[…] radioligand

Row | SMILES | Ki [1] [nM] | Ki [2] [nM]
1 | O=C1c2ccccc2CCC1C1CCN(Cc2ccc(F)cc2)CC1 (centres undefined) [2-[1-(4-Fluoro-benzyl)-piperidin-4-yl]-3,4-dihydro-2H-naphthalen-1-one; hydrochloride] | 61 | 11
2 | COc1ccc(CN2CCC3(CCc4ccccc4C3=O)CC2)cc1 [1'-(4-methoxybenzyl)spiro[1,2,3,4-tetrahydronaphthalene-2,4'-(hexahydropyridine)]-1-one; hydrochloride] | – | 3
3 | O=C1c2ccccc2CCC12CCN(Cc1ccc(F)cc1)CC2 [1'-(4-fluorobenzyl)spiro[1,2,3,4-tetrahydronaphthalene-2,4'-(hexahydropyridine)]-1-one; hydrochloride] | – | 4
4 | O=C1c2ccccc2CCC12CCN(Cc1ccc(C(F)(F)F)cc1)CC2 [1'-(4-trifluoromethylbenzyl)spiro[1,2,3,4-tetrahydronaphthalene-2,4'-(hexahydropyridine)]-1-one; malate] | – | 24
5 | CC(C)(C)c1ccc(CN2CCC(C3CCc4ccccc4C3=O)CC2)cc1 (centres undefined) [2-[1-(4-tert-Butyl-benzyl)-piperidin-4-yl]-3,4-dihydro-2H-naphthalen-1-one] | 410 | 26
6 | CC(C1CC1)N1CCC(C2CCc3ccccc3C2=O)CC1 (centres undefined) [2-[1-(1-Cyclopropyl-ethyl)-piperidin-4-yl]-3,4-dihydro-2H-naphthalen-1-one; hydrobromide] | – | 26
7 | O=C1c2ccccc2CCC12CCN(Cc1ccc3ccccc3c1)CC2 [1'-(2-naphthylmethyl)spiro[1,2,3,4-tetrahydronaphthalene-2,4'-(hexahydropyridine)]-1-one ;malate] | > 10000 | 11
8 | O=C1c2cccc(F)c2CCC1C1CCN(CCc2ccccc2)CC1 (centres undefined) [5-Fluoro-2-(1-phenethyl-piperidin-4-yl)-3,4-dihydro-2H-naphthalen-1-one; hydrochloride] | – | 5
9 | O=C1c2ccc(F)cc2CCC1C1CCN(CCc2ccccc2)CC1 (centres undefined) [6-Fluoro-2-(1-phenethyl-piperidin-4-yl)-3,4-dihydro-2H-naphthalen-1-one] | 344 | –
10 | O=C1c2ccccc2CCC1C1CCN(Cc2ccc(C(F)(F)F)cc2)CC1 (centres undefined) [2-[1-(4-Trifluoromethyl-benzyl)-piperidin-4-yl]-3,4-dihydro-2H-naphthalen-1-one; hydrochloride] | – | 19
11 | COc1ccc2c(c1)CCC(C1CCN(Cc3ccccc3)CC1)C2=O (centres undefined) [2-(1-Benzyl-piperidin-4-yl)-6-methoxy-3,4-dihydro-2H-naphthalen-1-one] | – | 7
12 | O=C1CCc2ccccc2C12CCN(CCc1ccccc1)CC2 [1'-phenethylspiro[1,2,3,4-tetrahydronaphthalene-1,4'-(hexahydropyridine)]-2-one] | > 10000 | 13
13 | O=C1c2ccccc2CCC12CCN(Cc1ccc([N+](=O)[O-])cc1)CC2 [1'-(4-nitrobenzyl)spiro[1,2,3,4-tetrahydronaphthalene-2,4'-(hexahydropyridine)]-1-one; hydrochloride] | 1970 | 1.9
14 | O=C1c2ccccc2CCC1C1CCN(Cc2ccccc2)CC1 (centres undefined) [2-(1-Benzyl-piperidin-4-yl)-3,4-dihydro-2H-naphthalen-1-one; hydrochloride] | 1000 | 4
15 | O=C1c2ccccc2CCC12CCN(CC1CCCCC1)CC2 [1'-cyclohexylmethylspiro[1,2,3,4-tetrahydronaphthalene-2,4'-(hexahydropyridine)]-1-one; hydrochloride] | 1170 | 2
16 | O=C1c2ccccc2CCC1C1CCN(CC2CC2)CC1 (centres undefined) [2-(1-Cyclopropylmethyl-piperidin-4-yl)-3,4-dihydro-2H-naphthalen-1-one; hydrobromide] | 1080 | 26
17 | O=C1c2ccc(F)cc2CCC1C1CCN(Cc2ccccc2)CC1 (centres undefined) [2-(1-Benzyl-piperidin-4-yl)-6-fluoro-3,4-dihydro-2H-naphthalen-1-one] | 62 | 9
18 | O=C1c2ccccc2CCC1C1CCN(CCc2ccccc2)CC1 (centres undefined) [2-(1-Phenethyl-piperidin-4-yl)-3,4-dihydro-2H-naphthalen-1-one; hydrobromide] | 600 | 10
19 | O=C1c2ccc(Cl)cc2CCC12CCN(CCc1ccccc1)CC2 [6-chloro-1'-phenethylspiro[1,2,3,4-tetrahydronaphthalene-2,4'-(hexahydropyridine)]-1-one] | – | 35
20 | O=C1c2ccc(Cl)cc2CCC1C1CCN(CCc2ccccc2)CC1 (centres undefined) [6-Chloro-2-(1-phenethyl-piperidin-4-yl)-3,4-dihydro-2H-naphthalen-1-one; hydrochloride] | – | 9
21 | OC1CCc2ccccc2C12CCN(CCc1ccccc1)CC2 (centres undefined) [1'-phenethylspiro[1,2,3,4-tetrahydronaphthalene-1,4'-(hexahydropyridine)]-2-ol] | > 10000 | –
22 | CC(C)(C)c1ccc(CN2CCC3(CCc4ccccc4C3=O)CC2)cc1 [1'-[4-(tert-butyl)benzyl]spiro[1,2,3,4-tetrahydronaphthalene-2,4'-(hexahydropyridine)]-1-one; hydrochloride] | – | 15
23 | Cc1ccc(CN2CCC(C3CCc4ccccc4C3=O)CC2)cc1 (centres undefined) [2-[1-(4-Methyl-benzyl)-piperidin-4-yl]-3,4-dihydro-2H-naphthalen-1-one; hydrate] | – | 8
24 | O=C1c2ccccc2CCC12CCN(Cc1ccccc1)CC2 | – | 1
